Residue numbers refer to the chain shown, from its start. Where two headings read alike, the source gives them in different places. Where a SMILES comes first, the peptide text is derived from it. Bridges are numbered along the chain shown (N, C = ends).
Assays:
Assay in all cases: IP1 accumulation
Assay type in all cases: cell-based
hCTR V375A = molecular target: T1, hCTR V375A (Homo sapiens, UniProt P30988, V375A); conditions: mean ± S.E.M.; for Emax: IP1 maximal response, SEM
T1 construct: c-Myc (N); expressed in transfected cells
T1 sequence (P30988 25-474 V375A): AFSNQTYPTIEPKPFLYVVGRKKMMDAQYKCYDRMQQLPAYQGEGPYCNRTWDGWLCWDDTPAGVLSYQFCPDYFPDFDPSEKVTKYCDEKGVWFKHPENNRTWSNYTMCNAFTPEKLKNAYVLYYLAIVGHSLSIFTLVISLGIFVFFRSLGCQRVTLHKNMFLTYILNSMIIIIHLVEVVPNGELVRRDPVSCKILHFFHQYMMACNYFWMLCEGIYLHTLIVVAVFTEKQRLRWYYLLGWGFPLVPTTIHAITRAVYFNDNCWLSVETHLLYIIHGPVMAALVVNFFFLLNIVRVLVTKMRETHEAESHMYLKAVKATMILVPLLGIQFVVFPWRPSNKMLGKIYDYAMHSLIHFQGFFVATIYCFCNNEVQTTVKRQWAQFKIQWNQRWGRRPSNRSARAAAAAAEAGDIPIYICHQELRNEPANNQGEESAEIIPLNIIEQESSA
How it was run: (§1)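 Ligand-induced IP1 (60 min, LiCl) measured by HTRF; normalized to 100 μM ATP response.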

hCTR WT = molecular target: T2, hCTR WT (Homo sapiens, UniProt P30988); conditions: for Emax: read-out: Emax (% WT), SEM
T2 construct: expressed in transfected cells
T2 sequence (P30988 25-474): T1 sequence (P30988 25-474 V375A) with A351V
How it was run: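 Concentration-response curves were fitted to a 3-parameter logistic model to estimate EC50 and Emax. Cells had been exposed to ligand for 60 min with LiCl, and lysate IP1 determined by HTRF, with normalization to 100 μM ATP.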

hCTR Y284A = molecular target: T3, hCTR Y284A (Homo sapiens, UniProt P30988, Y284A); conditions: mean ± S.E.M.; for Emax: IP1 maximal response, SEM
T3 construct: expressed in transfected cells
T3 sequence (P30988 25-474 Y284A): T1 sequence (P30988 25-474 V375A) with Y260A, A351V
How it was run: as §1

hCTR N288A = molecular target: T4, hCTR N288A (Homo sapiens, UniProt P30988, N288A); conditions: mean ± S.E.M.; for Emax: IP1 maximal response, SEM
T4 construct: expressed in transfected cells
T4 sequence (P30988 25-474 N288A): T1 sequence (P30988 25-474 V375A) with N264A, A351V
How it was run: as §1

hCTR K366A = molecular target: T5, hCTR K366A (Homo sapiens, UniProt P30988, K366A); conditions: mean ± S.E.M.; for Emax: IP1 maximal response, SEM
T5 construct: c-Myc (N); expressed in transfected cells
T5 sequence (P30988 25-474 K366A): T1 sequence (P30988 25-474 V375A) with K342A, A351V
How it was run: as §1

[1] = IP1, CV1-FlpIn cells, 60 min, LiCl

Compound	Emax (hCTR V375A) [%]	Emax (hCTR WT) [%]	Emax (hCTR Y284A) [%]	Emax (hCTR N288A) [%]	Emax (hCTR K366A) [%]	EC50 (hCTR V375A; [1]) [nM]	EC50 (hCTR WT; WT, IP1, CV1-FlpIn cells, 60 min, LiCl, mean ± S.E.M.) [nM]	Emax (hCTR WT; WT, IP1 maximal response, mean ± S.E.M.) [%]	EC50 (hCTR Y284A; [1]) [nM]	EC50 (hCTR N288A; [1]) [nM]	EC50 (hCTR K366A; [1]) [nM]
CC[C@H](C)[C@H](NC(=O)[C@H](C)NC(=O)[C@@H](NC(=O)[C@H](CCC(N)=O)NC(=O)[C@@H]1CCCN1C(=O)[C@H](Cc1ccccc1)NC(=O)[C@@H](NC(=O)[C@H](Cc1c[nH]cn1)NC(=O)[C@H](Cc1ccccc1)NC(=O)[C@H](CCCCN)NC(=O)[C@H](CC(N)=O)NC(=O)[C@H](Cc1ccccc1)NC(=O)[C@H](CC(=O)O)NC(=O)[C@H](CCC(N)=O)NC(=O)[C@@H](NC(=O)[C@H](Cc1ccc(O)cc1)NC(=O)[C@@H](NC(=O)CNC(=O)[C@H](CC(C)C)NC(=O)[C@H](CCSC)NC(=O)[C@@H]1CSSC[C@H](N)C(=O)NCC(=O)N[C@@H](CC(N)=O)C(=O)N[C@@H](CC(C)C)C(=O)N[C@@H](CO)C(=O)N[C@@H]([C@@H](C)O)C(=O)N1)[C@@H](C)O)[C@@H](C)O)[C@@H](C)O)[C@@H](C)O)C(=O)NCC(=O)N[C@H](C(=O)NCC(=O)N[C@@H](C)C(=O)N1CCC[C@H]1C(N)=O)C(C)C [hCT]	104 ± 6	100 ± 3	81 ± 12	91 ± 8	121 ± 6	–	–	–	–	–	–
CC(C)C[C@H](NC(=O)[C@H](CCCCN)NC(=O)CNC(=O)[C@H](CC(C)C)NC(=O)[C@@H](NC(=O)[C@@H]1CSSC[C@H](N)C(=O)N[C@@H](CO)C(=O)N[C@@H](CC(N)=O)C(=O)N[C@@H](CC(C)C)C(=O)N[C@@H](CO)C(=O)N[C@@H]([C@@H](C)O)C(=O)N1)C(C)C)C(=O)N[C@@H](CO)C(=O)N[C@@H](CCC(N)=O)C(=O)N[C@@H](CCC(=O)O)C(=O)N[C@@H](CC(C)C)C(=O)N[C@@H](Cc1c[nH]cn1)C(=O)N[C@@H](CCCCN)C(=O)N[C@@H](CC(C)C)C(=O)N[C@@H](CCC(N)=O)C(=O)N[C@H](C(=O)N[C@@H](Cc1ccc(O)cc1)C(=O)N1CCC[C@H]1C(=O)N[C@@H](CCCNC(=N)N)C(=O)N[C@H](C(=O)N[C@@H](CC(N)=O)C(=O)N[C@H](C(=O)NCC(=O)N[C@@H](CO)C(=O)NCC(=O)N[C@H](C(=O)N1CCC[C@H]1C(N)=O)[C@@H](C)O)[C@@H](C)O)[C@@H](C)O)[C@@H](C)O [sCT]	87 ± 5	100 ± 3	118 ± 7	119 ± 6	93 ± 5	–	–	–	–	–	–
CSCC[C@H](NC(=O)CNC(=O)[C@H](CO)NC(=O)[C@H](Cc1ccccc1)NC(=O)[C@H](CCCNC(=N)N)NC(=O)[C@H](Cc1c[nH]cn1)NC(=O)[C@H](Cc1ccccc1)NC(=O)[C@H](CC(N)=O)NC(=O)[C@H](CC(N)=O)NC(=O)[C@H](CC(C)C)NC(=O)[C@H](CC(N)=O)NC(=O)[C@H](CCCNC(=N)N)NC(=O)[C@H](Cc1c[nH]c2ccccc12)NC(=O)[C@H](Cc1ccc(O)cc1)NC(=O)[C@H](C)NC(=O)[C@H](CO)NC(=O)[C@H](CC(C)C)NC(=O)[C@@H](NC(=O)[C@@H]1CSSC[C@H](N)C(=O)N[C@@H](CO)C(=O)N[C@@H](CC(N)=O)C(=O)N[C@@H](CC(C)C)C(=O)N[C@@H](CO)C(=O)N[C@@H]([C@@H](C)O)C(=O)N1)C(C)C)C(=O)NCC(=O)N[C@@H](Cc1ccccc1)C(=O)NCC(=O)N1CCC[C@H]1C(=O)N[C@@H](CCC(=O)O)C(=O)N[C@H](C(=O)N1CCC[C@H]1C(N)=O)[C@@H](C)O [pCT] (H-CSNLSTCVLSAYWRNLNNFHRFSGMGFGPETP-NH2; disulfide 1-7)	100 ± 5	–	94 ± 6	93 ± 7	91 ± 6	1.17	1.38	100 ± 3	1.15	1.91	1.48

Reference: paper PMC5908784, “Extracellular loops 2 and 3 of the calcitonin receptor selectively modify agonist binding and efficacy” (Biochemical Pharmacology, 2018)
